Source: patent publication US12011433B2 (UNIVERSITÁ DEGLI STUDI DI BARI “ALDO MORO”, priority 2016, dated 2024)

What was measured:
GFAP = assay: astroglial activation in LPS-treated mice, GFAP immunoreactivity and immunoblotting; type: in vivo
Description: (§1) The protein concentration in the supernatant was spectrophotometrically determined by Bradford's protein assay (Bradford, 1976). […] Proteins (25 μg/lane) and prestained standards (BioRad Laboratories, Hercules, CA, USA) were loaded on 7% or 12% SDS precast polyacrylamide gels (BioRad Laboratories). After electrophoresis, the resolved proteins were transferred from the gel to nitrocellulose membranes. A blotting buffer [20 mMTris/150 mM glycine, pH=8.0, 20% (v/v) methanol] was used for gel and membrane saturation and blotting. […] Bands were visualized by chemiluminescence detection (Invitrogen, Milan, Italy). The β-actin level was used as a protein loading control. For tissue analysis, obtained bands were normalized to the level of β-actin performed for each cerebral area tested. For cell cultures the bands were normalized to the β-actin level in each experimental condition. […] VM in all the Figures) once a day for 10 days. […] On the seventh day, mice were anesthetized with tribromoethanol (250 mg/Kg, i.p.) and positioned in a stereotactic apparatus (Kopf Instruments, Tujunga, CA, USA). […] Immunohistochemistry was performed following a standard avidin-biotin complex procedure. […]

PGE2 = PGE2 release in LPS-stimulated BV2 microglial cells, competitive binding immunoassay; type: cell-based; conditions: for PGE2 release (ng/ml) at 48 h: LPS-stimulated BV2 cells; for PGE2 production reduction: LPS-treated BV2 cells
Description: Microglial cells were cultured in 6-well plates at a density of 3×10^6 cells/well. […] The cultures were maintained at 37° C. for 24 and 48 h in a humidified air containing a 5% CO2. PGE2 levels were determined in the supernatant using a competitive binding immunoassay (Cayman Chemical, Ann Arbor, MI, USA) following the manufacturer's instructions. Unstimulated cells were included as a control. PGE2 amount determination in the brain was performed in the tissue extracts, according to the manufacturer's instructions. The optical density was measured at λ=405-420 nm with precision microplate reader and the amount of PGE2 (ng/mL) was calculated using a PGE2 standard curve.

[1] = Caco-2 monolayer efflux assay, Apparent Permeability (Papp), with or without GLUT-1 inhibitor phloretin; type: in vitro ADME, Human; conditions: human, compound alone
Description: (§2) In a monolayer efflux assay, the Apparent Permeability (Papp) in both basolateral to apical [Papp(B→A)] and apical to basolateral [Papp(A→B)] directions was determined for each compound (FIG. 2). Human colonic adenocarcinoma cell line (Caco-2) presents a facilitated transport system at the apical and basolateral surface. Caco-2 cells express high levels of GLUT-1 that are localized to the basolateral membrane and transport glucose to the serosal side.
(§3) The Papp(B→A) flux of each compound alone or in the presence of phloretin, a GLUT-1 inhibitor, has been determined. Since GLUT-1 is express in the basolateral compartment a high B→A flux means that the transport is GLUT-1 mediated because B→A flux represents the active transport.
(§4) A→B flux, which represents the passive transport, has also been determined for each compound (Table 2).

Caco-2 cells = assay: as above; type: in vitro ADME, Human; conditions: compound alone
Description: as §2, §3, §4

COX-2 [2] = target: COX-2 (Mus musculus (Mouse), UniProt Q05769); assay: COX-2 expression in brain regions of LPS-treated mice, immunoblotting; type: in vivo; conditions: for COX-2 expression reduction (%): mofezolac 6 mg/kg i.p.
Description: Substantia nigra pars compacta (SNpc), Hippocampus, Frontal lobe and Caudate from mice brains were minced in ice-cold PBS, washed and then homogenized in a buffer containing lysis buffer (50 mM Tris pH 8, 0.02 g/mL NaCl, 0.2% SDS, 1% Triton-X, 4 U/ml aprotinin, 2 mM leupeptin, 100 mM phenylmethanesulfonyl fluoride).
The tissue and cell culture lysates were vortexed for 15-20 s and, then, centrifuged at 12,800×g for 20 min. The protein concentration in the supernatant was spectrophotometrically determined by Bradford's protein assay (Bradford, 1976). Protein samples were diluted with sample buffer (0.5 M Tris-HCl pH=6.8, 10% glycerol, 10% (w/v) SDS, 5% 2-mercaptoethanol, 0.05% (w/v) bromophenol blue) and then boiled for 3 min. Proteins (25 μg/lane) and prestained standards (BioRad Laboratories, Hercules, CA, USA) were loaded on 7% or 12% SDS precast polyacrylamide gels (BioRad Laboratories).
After electrophoresis, the resolved proteins were transferred from the gel to nitrocellulose membranes. A blotting buffer [20 mMTris/150 mM glycine, pH=8.0, 20% (v/v) methanol] was used for gel and membrane saturation and blotting. Then, membranes were incubated in the dark with 1 μg/mL mouse monoclonal antibody (MoAb) anti-COX-1 and rabbit polyclonal Ab anti-COX-2 (1:1000) (both from AbCam, Cambridge, UK), rabbit polyclonal Ab anti p-IkB-α (1:200), mouse polyclonal Ab anti β-actin (1:500) (all from Santa Cruz Biotechnology), mouse MoAb anti-glial fibrillary acidic protein (GFAP) (1:200) and mouse mAb anti-ionized calcium-binding adapter molecule-1 (Iba-1) (1:200) (both from Merck Millipore) overnight at 4° C. The membranes were washed with 0.1% Tween 20-PBS (for 20 min, 3 times) and then incubated with the secondary antibody diluted 1:2000 for 60 min. Bands were visualized by chemiluminescence detection (Invitrogen, Milan, Italy). The β-actin level was used as a protein loading control. For tissue analysis, obtained bands were normalized to the level of β-actin performed for each cerebral area tested. For cell cultures the bands were normalized to the β-actin level in each experimental condition.
On the seventh day, mice were anesthetized with tribromoethanol (250 mg/Kg, i.p.) and positioned in a stereotactic apparatus (Kopf Instruments, Tujunga, CA, USA). […] Sterotaxic injections coordinates were: 2.3 mm dorsal/ventral, 1.0 mm lateral, and 0.5 mm anterior/posterior from the bregma.

COX-2 [3] = target: COX-2 (Homo sapiens, UniProt P35354); assay: colorimetric COX Inhibitor screening Assay (peroxidase component, oxidized TMPD at 590 nm); type: biochemical; conditions: at 50 μM, the highest concentration tested
Description: Human cyclooxygenase inhibitory activity was determined by a colorimetric COX Inhibitor screening Assay which measures the peroxidase component of the cyclooxygenases, monitoring the appearance of oxidized N,N,N′,N′-tetramethyl-p-phenylenediamine (TMPD) at 590 nm.

Iba-1 = assay: microglial activation in LPS-treated mice, Iba-1 immunoreactivity and immunoblotting; type: in vivo
Description: as §1

[4] = immunoblotting, mofezolac + LPS vs LPS alone

Sequence of COX-2 (Homo sapiens, UniProt P35354) (P35354 18-604 limits assumed): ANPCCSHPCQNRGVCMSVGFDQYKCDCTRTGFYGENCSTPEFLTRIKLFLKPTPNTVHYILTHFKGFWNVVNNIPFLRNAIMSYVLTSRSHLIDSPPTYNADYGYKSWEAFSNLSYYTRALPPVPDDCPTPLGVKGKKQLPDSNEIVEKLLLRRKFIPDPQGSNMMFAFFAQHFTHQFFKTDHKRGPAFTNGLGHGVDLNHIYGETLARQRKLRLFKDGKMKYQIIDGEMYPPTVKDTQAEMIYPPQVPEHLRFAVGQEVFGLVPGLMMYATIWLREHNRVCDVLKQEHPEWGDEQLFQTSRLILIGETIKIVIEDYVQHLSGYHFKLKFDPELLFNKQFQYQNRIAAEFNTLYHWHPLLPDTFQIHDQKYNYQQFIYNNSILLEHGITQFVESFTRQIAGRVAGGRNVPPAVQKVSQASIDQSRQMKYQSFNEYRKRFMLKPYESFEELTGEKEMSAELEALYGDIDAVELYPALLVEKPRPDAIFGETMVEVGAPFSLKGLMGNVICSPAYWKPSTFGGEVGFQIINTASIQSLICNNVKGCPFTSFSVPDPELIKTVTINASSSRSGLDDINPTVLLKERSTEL

Papp B→A [1]: 46.1 ×10⁻⁶ cm/s
Papp A→B (Caco-2 cells): 41.4 ×10⁻⁶ cm/s
Papp B→A (Caco-2 cells): 46.1 ×10⁻⁶ cm/s
COX-2 expression reduction (%) (COX-2 [2]; Caudate): 0%
COX-2 expression reduction (%) (COX-2 [2]; Frontal lobe): 0%
COX-2 expression reduction (%) (COX-2 [2]; Hippocampus): 0%
COX-2 expression reduction (%) (COX-2 [2]; Substantia nigra): 0%
effect on COX-2 modulation (COX-2 [2]; all tested brain regions): no effect
inhibition at 50 µM (COX-2 [3]): 38%
SMILES: COc1ccc(-c2noc(CC(=O)O)c2-c2ccc(OC)cc2)cc1 [mofezolac, 2-(3,4-bis(4-methoxyphenyl)isoxazol-5-yl)acetic acid]
GFAP levels (GFAP; [4]): significantly reduced
GFAP immunoreactive cells (GFAP; immunohistochemistry, LPS-treated mice, mofezolac 6 mg/kg i.p., all the tested brain areas): reduced the presence of GFAP immunoreactive cells
PGE2 release (ng/ml) at 48 h (PGE2; 0.1 μM inhibitor + LPS): 0.06 ng/mL
PGE2 release (ng/ml) at 48 h (PGE2; 0.5 μM inhibitor + LPS): 0.03 ng/mL
PGE2 production reduction (PGE2; at 0.5 μM as printed in the text): 94%
PGE2 production reduction (PGE2; at 1 μM as printed in the text): 97%
Iba-1 levels (Iba-1; [4]): significantly reduced
Iba-1 immunoreactivity (Iba-1; immunohistochemistry, LPS-injected mice, mofezolac 6 mg/kg i.p., all the tested brain areas): reduction of Iba-1 immunoreactivity
